In ChEMBL document CHEMBL1201862, “PubChem BioAssay data set” (2004):
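In this assay, cells in 96-well plates receive the compound at five concentrations for 48 hours. Endpoints are linearly interpolated between the surrounding concentrations. GI50 is the concentration that inhibits growth by half.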 Activity calls are given as the source filed them. Cut-off read from the data, not from the text of the source: active = GI50 up to about 1.1 µM and inactive = higher.

Key:
Assay in all cases: NCI anticancer screen, dose series, 48 h
COLO 205 = tested on: COLO 205
HCT-116 = tested on: HCT-116
HT-29 = tested on: HT-29
MOLT-4 = tested on: MOLT-4
OVCAR-5 = tested on: OVCAR-5
OVCAR-8 = tested on: OVCAR-8
SF-539 = tested on: SF-539
SK-MEL-28 = tested on: SK-MEL-28
SK-MEL-2 = tested on: SK-MEL-2
SW-620 = tested on: SW-620
UO-31 = tested on: UO-31
HL-60 = tested on: HL-60
NCI-H460 = tested on: NCI-H460
SK-MEL-5 = tested on: SK-MEL-5
A498 = tested on: A498
SK-OV-3 = tested on: SK-OV-3

Measured: GI50

O=c1[nH]c(-c2ccccc2)nc2ccc(Cl)cc12
inactive: COLO 205 > 100 µM | HCT-116 > 100 µM | HT-29 36.8 µM | MOLT-4 34 µM | OVCAR-5 > 100 µM | OVCAR-8 43.8 µM | SF-539 > 100 µM | SK-MEL-28 23.4 µM | SK-MEL-2 47 µM | SW-620 29.4 µM | UO-31 48.1 µM

N=C(c1ccccc1)N1CCCCC1
inactive: COLO 205 > 100 µM | HCT-116 > 100 µM | HL-60 > 100 µM | HT-29 > 100 µM | NCI-H460 > 100 µM | OVCAR-5 > 100 µM | OVCAR-8 > 100 µM | SF-539 > 100 µM | SK-MEL-28 > 100 µM | SK-MEL-2 > 100 µM | SW-620 > 100 µM | UO-31 > 100 µM

Nc1nc(-c2ccco2)cc(-c2ccco2)n1
inactive: COLO 205 > 100 µM | HCT-116 > 100 µM | HL-60 > 100 µM | HT-29 > 100 µM | MOLT-4 > 100 µM | NCI-H460 > 100 µM | OVCAR-5 > 100 µM | OVCAR-8 > 100 µM | SF-539 > 100 µM | SK-MEL-28 > 100 µM | SK-MEL-2 > 100 µM | SK-MEL-5 > 100 µM | SW-620 > 100 µM | UO-31 42.7 µM

COc1cc(Nc2cnc3ccc(N)cc3n2)cc(OC)c1OC
inactive: A498 > 100 µM | COLO 205 42.5 µM | HCT-116 > 94.6 µM | HL-60 17.7 µM | HT-29 48.9 µM | MOLT-4 49 µM | NCI-H460 69.3 µM | OVCAR-5 > 100 µM | OVCAR-8 > 100 µM | SK-MEL-28 78.2 µM | SK-MEL-2 > 100 µM | SK-MEL-5 16.9 µM | SK-OV-3 > 86.9 µM | SW-620 > 100 µM | UO-31 37.8 µM

CCC(C)CNC1=C(NC(C)=O)C(=O)c2ccccc2C1=O (stereo unspecified)
inactive: COLO 205 78.9 µM | HCT-116 > 100 µM | HL-60 > 100 µM | HT-29 > 100 µM | MOLT-4 > 100 µM | NCI-H460 94.6 µM | OVCAR-8 > 100 µM | SF-539 > 100 µM | SK-MEL-28 > 100 µM | SK-MEL-2 > 100 µM | SK-MEL-5 31.6 µM | SK-OV-3 > 100 µM | SW-620 > 100 µM | UO-31 > 100 µM

NS(=O)(=O)c1ccc(NC(=O)c2cccn3c(=O)c4ccccc4nc23)cc1
inactive: A498 > 100 µM | COLO 205 > 100 µM | HCT-116 > 100 µM | HL-60 > 100 µM | HT-29 > 100 µM | MOLT-4 80.2 µM | NCI-H460 > 100 µM | OVCAR-8 > 100 µM | SF-539 > 100 µM | SK-MEL-28 > 100 µM | SK-MEL-5 > 100 µM | SK-OV-3 > 100 µM | SW-620 > 100 µM | UO-31 85.5 µM

C/C=C(/CCC1NCCC2c3ccccc3NC12)[Si](C)(C)C (stereo unspecified)
inactive: COLO 205 1.69 µM | HCT-116 3.52 µM | HL-60 2.12 µM | HT-29 2.83 µM | MOLT-4 3.17 µM | NCI-H460 3.3 µM | OVCAR-5 7.28 µM | OVCAR-8 7.98 µM | SF-539 15.8 µM | SK-MEL-28 5.2 µM | SK-MEL-2 13.8 µM | SK-MEL-5 12.8 µM | SK-OV-3 15.7 µM | SW-620 3.02 µM | UO-31 7.08 µM

COc1ccc(O)cc1C=O
inactive: A498 > 100 µM | COLO 205 > 100 µM | HCT-116 50 µM | HL-60 21.4 µM | HT-29 > 100 µM | MOLT-4 67.6 µM | NCI-H460 > 100 µM | OVCAR-5 > 100 µM | OVCAR-8 > 100 µM | SF-539 > 100 µM | SK-MEL-28 65.3 µM | SK-MEL-5 61 µM | SK-OV-3 > 100 µM | SW-620 47.5 µM | UO-31 > 100 µM

Cc1c(-c2nnc(-c3ccc(Cl)cc3)o2)c(=O)n(-c2ccccc2)n1C
inactive: A498 > 100 µM | COLO 205 > 100 µM | HCT-116 > 100 µM | HL-60 > 100 µM | HT-29 > 100 µM | MOLT-4 > 100 µM | NCI-H460 > 100 µM | OVCAR-8 > 100 µM | SF-539 3.33 µM | SK-MEL-28 > 100 µM | SK-MEL-2 > 100 µM | SK-OV-3 > 100 µM | SW-620 > 100 µM | UO-31 > 100 µM

COCCCNC(=O)C1C(=O)N(CCCOC)C(=O)/C1=N\N (stereo unspecified)
inactive: A498 > 100 µM | COLO 205 > 100 µM | HCT-116 > 100 µM | HL-60 > 100 µM | HT-29 > 100 µM | MOLT-4 > 100 µM | NCI-H460 > 100 µM | OVCAR-5 > 100 µM | OVCAR-8 > 100 µM | SF-539 > 100 µM | SK-MEL-28 > 100 µM | SK-MEL-2 > 100 µM | SK-MEL-5 > 100 µM | SW-620 > 100 µM | UO-31 > 100 µM

CN(C)c1ccc(/C=C(\C#N)C(=O)c2ccccc2)cc1Br
inactive: COLO 205 > 100 µM | HCT-116 > 100 µM | HL-60 25.7 µM | HT-29 > 100 µM | MOLT-4 36.2 µM | NCI-H460 > 100 µM | OVCAR-5 > 100 µM | OVCAR-8 > 100 µM | SF-539 > 100 µM | SK-MEL-28 46.5 µM | SK-MEL-2 > 100 µM | SK-MEL-5 96.2 µM | SK-OV-3 > 100 µM | SW-620 66.1 µM | UO-31 > 100 µM

O=C1c2c(c3c4ccccc4[nH]c3c3[nH]c4ccccc4c23)C(=O)N1Cc1ccccc1
inactive: COLO 205 2.2 µM | HCT-116 2.74 µM | HT-29 4.04 µM | MOLT-4 2.14 µM | NCI-H460 3.3 µM | OVCAR-5 2.62 µM | OVCAR-8 4.47 µM | SF-539 2.37 µM | SK-MEL-28 2.89 µM | SK-MEL-2 3.2 µM | SK-MEL-5 1.85 µM | SK-OV-3 2.96 µM | SW-620 3.7 µM | UO-31 2.53 µM

C[C@@H]1C[C@]2(C[C@@H](C)C3[C@@H](CC4(C)[C@@H]5CCC6C(C)(C)OC(=O)C=C[C@]67C[C@@]5(CC[C@]34C)OO7)O2)OC1=O (stereo partly specified)
inactive: COLO 205 > 100 µM | HCT-116 61.5 µM | HL-60 46.2 µM | HT-29 > 100 µM | NCI-H460 86.7 µM | OVCAR-5 > 100 µM | OVCAR-8 67.5 µM | SF-539 35.8 µM | SK-MEL-28 66.7 µM | SK-MEL-2 50.4 µM | SK-MEL-5 37.9 µM | SK-OV-3 43.6 µM | SW-620 84.3 µM | UO-31 51.8 µM

Oc1c2c(nc3cc4c(cc13)OCO4)-c1ccccc1CC2
inactive: A498 > 100 µM | COLO 205 > 100 µM | HCT-116 > 100 µM | HL-60 > 100 µM | HT-29 > 100 µM | MOLT-4 > 100 µM | NCI-H460 > 100 µM | OVCAR-8 > 100 µM | SF-539 > 100 µM | SK-MEL-28 > 100 µM | SK-MEL-2 > 100 µM | SK-MEL-5 > 100 µM | SW-620 > 100 µM | UO-31 > 100 µM
